Assays:
LC3B = test: Immunocytochemistry of LC3B (autophagosomes) in LNCaP cells; format: cell-based, human; details: 6 hrs, Baflomycin A1 (100 nM), control cells and cells under combination treatments, M4N 80 μM
Source text: […] After permeabilized by 0.2% Tryton X-100 and 1% goat serum diluted in PBS (−), the cells were blocked by PBS (−) containing 5% goat serum.

LC3B-II = test: Western blotting of LC3B-II (autophagy) in MCF-7 cells; format: cell-based, human; details: MCF-7, 15 hrs; M4N 80 μM
Procedure: The sample volumes were adjusted by the total protein amount. Protein assay was performed by Bio-Rad Protein Assay (Bio-Rad Laboratories, Inc. Hercules, Calif.). The samples were resolved by the standard SDS-polyacrylamide gel electrophoresis and transferred to nitrocellulose membrane (Amersham Biosciences, Bjorkgatan, Sweden). The membranes were blocked with skim milk, and incubated with primary antibodies at 4° C. overnight and then with secondary antibody conjugated with horse radish peroxidase at room temperature for 2 hrs. The signals were detected by western blot chemiluminescence reagent plus (New England Nuclear Life Science Products, Boston, Mass.). The effect of […] on autophagy was examined using the western blotting for LC3B-II in the presence of Baflomycin A1 in MCF-7 and HepG2 cells (FIG. 4D).

[1] = human patients (reference 10); cited from earlier work
BNIP3 = test: Western blotting of BNIP3 in LNCaP cells, normoxic or hypoxic; format: cell-based, human; details: normoxic or hypoxic condition, M4N 80 μM
Source text: LNCaP human prostate cancer, DU145 human prostate cancer, PC3 human prostate cancer, MCF-7 human breast cancer, MDA-MB-231 human breast cancer, MDA-MB-468 human breast cancer, HT29 human colon cancer, K562 human myelogenous leukaemia, HepG2 human hepatoma, Hep3B human hepatoma, and LN229 human glioblastoma cancer cell lines were purchased from American Type Culture Collection (Manassas, Va.). OC24 human ascites ovarian cancer cell line was a generous gift from Dr. XXX (Johns Hopkins University, MD). LNCaP cell line was cultured in RPMI1640 medium supplemented with glucose (14 mM), pyruvate (1 mM), and fetal bovine serum (FBS) (10%). DU145 cell line was cultured in MEM supplemented with non-essential amino acids, glucose (21 mM), pyruvate (1 mM), and FBS (10%). PC3 cell line was cultured in F-12K medium supplemented with FBS (10%). MCF-7 cell line was cultured in DMEM supplemented with FBS (10%). OC24 cell line was cultured in RPMI1640 medium supplemented with FBS (10%) as suspension culture. MDA-MB-231 and 468 cell lines were cultured in Leibovitz's L15 medium supplemented with FBS (10%) under air. HT29 cell line was cultured in DMEM supplemented with glucose (25 mM) and FBS (10%). K562 cell line was cultured in RPMI1640 supplemented with FBS (10%). […] The signals were detected by western blot chemiluminescence reagent plus (New England Nuclear Life Science Products, Boston, Mass.). […]

BNIP3L = test: Western blotting of BNIP3L in LNCaP cells; format: cell-based, human; details: M4N 80 μM
Procedure: The sample volumes were adjusted by the total protein amount. Protein assay was performed by Bio-Rad Protein Assay (Bio-Rad Laboratories, Inc. Hercules, Calif.). The samples were resolved by the standard SDS-polyacrylamide gel electrophoresis and transferred to nitrocellulose membrane (Amersham Biosciences, Bjorkgatan, Sweden). The membranes were blocked with skim milk, and incubated with primary antibodies at 4° C. overnight and then with secondary antibody conjugated with horse radish peroxidase at room temperature for 2 hrs. The signals were detected by western blot chemiluminescence reagent plus (New England Nuclear Life Science Products, Boston, Mass.). BNIP3 is a member of Bcl-2 family proteins which sends pro-apoptotic signal to mitochondria and induces mitochondrial membrane potential depolarization. […] This implies that BNIP3 is involved in autophagy as well as cell death. […] Since BNIP3 is known to be activated more under hypoxic conditions (24), BNIP3 expression was examined in both normoxic and hypoxic conditions (FIGS. 3A&B). […] Previously it was shown that BNIP3 expression is augmented by hypoxia through both […] (HIF)1α-dependent and nondependent pathways (24).

COc1ccc(C[C@@H](C)[C@@H](C)Cc2ccc(OC)c(OC)c2)cc1OC [M4N, Tetra-O-methyl nordihyroguaiaretic acid]
net amount of autophagosomes (LC3B staining) (LC3B): reduced the net amount of autophagosomes | autophagy (LC3B-II in the presence of Baflomycin A1) (LC3B-II): blocks autophagy | toxicity in clinical trials [1]: fairly nontoxic | BNIP3 protein expression (BNIP3): blocks BNIP3 protein expression | BNIP3L expression (BNIP3L): only slightly reduced

Source: patent US9101567B2, “Suppression of cancer growth and metastasis using nordihydroguaiaretic acid derivatives with 7-hydroxystaurosporine” (The Johns Hopkins University, priority 2010, dated 2015)
